# Results from patent US12509482B2, “3′-ketoglycoside compound for the slow release of a volatile alcohol” (GLYCOSCIENCE, S.L., priority 2020, dated 2025).
# Assays:
# [1] = Example 27: release of phenol from 2′,6′-diacetyl-phenyl-O-β-D-3′-ketoglucopyranoside, 0.1 M deuterated phosphate buffer or D2O, 33% D6-DMSO, 32° C.; format: physicochemical
# Experimental: 0.1 M of pH 5.8 and 7.4 stock buffered solutions of sodium dihydrogen phosphate and disodium hydrogen phosphate were prepared in deuterated water (D2O).
# A stock solution of 25 mg of 2′,6′-diacetyl-phenyl-O-β-D-3′-ketoglucopyranoside in 1.0 mL of D6-DMSO were prepared.
# To three parallel reaction vials, where indicated in the reaction table below, was added 0.20 mL of the glycoside substrate solutions in D6-DMSO and 0.40 mL of low or high pH 0.1M phosphate buffer in D2O and the mixtures incubated by shaking at 32° C. After times indicated in table below, the mixtures where analysed by ^1H-NMR in a 400 MHz instrument.
# [2] = Example 18: release of picaridin from 250 μM picaridin-O-β-D-3′-ketoglucopyranoside in different pH aqueous buffers, 32° C., UPLC; format: physicochemical
# Experimental: In this example the rate of release of picaridin from a solution of sec-butyl 2-(2-(((2R,3S,5R,6R)-3,5-dihydroxy-6-(hydroxymethyl)-4-oxotetrahydro-2H-pyran-2-yl)oxy)ethyl)piperidine-1-carboxylate (picaridin-O-β-D-3′-ketoglucopyranoside) different pH aqueous buffers was determined.
# Parallel mixtures containing 250 μM picaridin-O-β-D-3′-ketoglucopyranoside in 0.05M K2HPO4 0.95M/KH2PO4, pH=8.5 buffer (Reaction 1), 0.17M Na2HPO4/0.02M citric acid, pH=7 buffer (Reaction 2), 0.12M Na2HPO4/0.04M citric acid buffer, pH=5.8 (Reaction 3) and 0.04M sodium citrate/0.06M citric acid buffer, pH=4 (Reaction 4) were incubated at 32° C. Aliquots of 10 μl were periodically taken, diluted with MeCN (90 μl) and analysed by UPLC using the following instrument and conditions: • Stationary phase: Acquity UPLC® BEH C18 1.7 μm (2.1 mm×50 mm) (Waters) • Mobile phase: A: water+0.1% formic acid; B: acetonitrile+0.1% formic acid • The chromatographic equipment employed was an UPLC QSM Waters Acquity. • Gradient conditions:
# • Flow Rate(mL/min) 0.6 • Source Temperature (° C.) 150 • Desolvation Temperature (° C.) 500 • Cone Gas Flow (L/Hr) 50 • Desolvation Gas Flow (L/Hr) 900 • Target Column Temperature 35° C.
# Target Sample Temperature 8.0° C.
smiles,measurement,setting,value
"CC(=O)OC[C@H]1O[C@@H](Oc2ccccc2)[C@H](OC(C)=O)C(=O)[C@@H]1O [((2R,3R,5S,6S)-5-acetoxy-3-hydroxy-4-oxo-6-phenoxytetrahydro-2H-pyran-2-yl)methyl acetate]",phenol release (in words),[1]; 32° C.,generates phenol at both pH 5.8 and pH 7.4 and in D2O
same,% Conversion by 1H-NMR,"[1]; D2O, 0 h",0%
same,% Conversion by 1H-NMR,"[1]; D2O, 4 h",0%
same,% Conversion by 1H-NMR,"[1]; D2O, 22 h",10%
same,% Conversion by 1H-NMR,"[1]; D2O, 70 h (printed under the 52 h column)",21%
same,% Conversion by 1H-NMR,"[1]; pH 5.8, 0 h",14%
same,% Conversion by 1H-NMR,"[1]; pH 5.8, 4 h",18%
same,% Conversion by 1H-NMR,"[1]; pH 5.8, 22 h",24%
same,% Conversion by 1H-NMR,"[1]; pH 5.8, 52 h",26%
same,% Conversion by 1H-NMR,"[1]; pH 5.8, 120 h",36%
same,% Conversion by 1H-NMR,"[1]; pH 5.8, 432 h",54%
same,% Conversion by 1H-NMR,"[1]; pH 7.4, 0 h",19%
same,% Conversion by 1H-NMR,"[1]; pH 7.4, 4 h",43%
same,% Conversion by 1H-NMR,"[1]; pH 7.4, 22 h",74%
same,% Conversion by 1H-NMR,"[1]; pH 7.4, 52 h",81%
same,% Conversion by 1H-NMR,"[1]; pH 7.4, 120 h",93%
same,% Conversion by 1H-NMR,"[1]; pH 7.4, 432 h",100%
"CCC(C)OC(=O)N1CCCCC1CCO[C@@H]1O[C@H](CO)[C@@H](O)C(=O)[C@H]1O (stereo partly drawn) [picaridin-O-β-D-3′-ketoglucopyranoside, sec-butyl 2-(2-(((2R,3S,5R,6R)-3,5-dihydroxy-6-(hydroxymethyl)-4-oxotetrahydro-2H-pyran-2-yl)oxy)ethyl) piperidine-1-carboxylate]",pH dependence of degradation (in words),[2]; 32° C.,degraded at increasing rate between pH 4 and pH 8.5
same,Picaridin released,"[2]; Reaction 1, pH=8.5 buffer, 0 h",1 µM
same,Picaridin released,"[2]; Reaction 1, pH=8.5 buffer, 7 h",2 µM
same,Picaridin released,"[2]; Reaction 1, pH=8.5 buffer, 24 h",7 µM
same,Picaridin released,"[2]; Reaction 1, pH=8.5 buffer, 50 h",15 µM
same,Picaridin released,"[2]; Reaction 2, pH=7 buffer, 0 h",1 µM
same,Picaridin released,"[2]; Reaction 2, pH=7 buffer, 7 h",1 µM
same,Picaridin released,"[2]; Reaction 2, pH=7 buffer, 24 h",2 µM
same,Picaridin released,"[2]; Reaction 2, pH=7 buffer, 50 h",4 µM
same,Picaridin released,"[2]; Reaction 3, pH=5.8 buffer, 0 h",0.25 µM
same,Picaridin released,"[2]; Reaction 3, pH=5.8 buffer, 7 h",0.75 µM
same,Picaridin released,"[2]; Reaction 3, pH=5.8 buffer, 24 h",1 µM
same,Picaridin released,"[2]; Reaction 3, pH=5.8 buffer, 50 h",2 µM
same,Picaridin released,"[2]; Reaction 4, pH=4 buffer, 0 h",0.25 µM
same,Picaridin released,"[2]; Reaction 4, pH=4 buffer, 7 h",0.75 µM
same,Picaridin released,"[2]; Reaction 4, pH=4 buffer, 24 h",1 µM
same,Picaridin released,"[2]; Reaction 4, pH=4 buffer, 50 h",1.75 µM
